Columns and labels:
[1] = molecular target: Dual specificity tyrosine-phosphorylation-regulated kinase 1B (Homo sapiens) (UniProt Q9Y463); assay: Residual activity of DYRK1B at 0.1 uM by microplate scintillation counting
[2] = molecular target: Protein kinase C eta type (Homo sapiens) (UniProt P24723); assay: Residual activity of PKCeta at 0.1 uM by microplate scintillation counting
Angiopoietin-1 receptor = Angiopoietin-1 receptor (Homo sapiens, UniProt Q02763); assay: Residual activity of TIE2 at 1 uM by microplate scintillation counting
[3] = molecular target: Proto-oncogene tyrosine-protein kinase Src (Homo sapiens) (UniProt P12931); assay: Residual activity of SRC at 0.1 uM by microplate scintillation counting
[4] = molecular target: G protein-coupled receptor kinase 6 (Homo sapiens) (UniProt P43250); assay: Residual activity of GRK6 at 10 uM by microplate scintillation counting
[5] = molecular target: Serine/threonine-protein kinase PLK2 (Homo sapiens) (UniProt Q9NYY3); assay: Residual activity of SNK at 10 uM by microplate scintillation counting
[6] = molecular target: T1, Inhibitor of nuclear factor kappa-B kinase subunit beta (Homo sapiens) (UniProt O14920); assay: Residual activity of IKK-beta at 1 uM by microplate scintillation counting
T1 sequence (whole entry): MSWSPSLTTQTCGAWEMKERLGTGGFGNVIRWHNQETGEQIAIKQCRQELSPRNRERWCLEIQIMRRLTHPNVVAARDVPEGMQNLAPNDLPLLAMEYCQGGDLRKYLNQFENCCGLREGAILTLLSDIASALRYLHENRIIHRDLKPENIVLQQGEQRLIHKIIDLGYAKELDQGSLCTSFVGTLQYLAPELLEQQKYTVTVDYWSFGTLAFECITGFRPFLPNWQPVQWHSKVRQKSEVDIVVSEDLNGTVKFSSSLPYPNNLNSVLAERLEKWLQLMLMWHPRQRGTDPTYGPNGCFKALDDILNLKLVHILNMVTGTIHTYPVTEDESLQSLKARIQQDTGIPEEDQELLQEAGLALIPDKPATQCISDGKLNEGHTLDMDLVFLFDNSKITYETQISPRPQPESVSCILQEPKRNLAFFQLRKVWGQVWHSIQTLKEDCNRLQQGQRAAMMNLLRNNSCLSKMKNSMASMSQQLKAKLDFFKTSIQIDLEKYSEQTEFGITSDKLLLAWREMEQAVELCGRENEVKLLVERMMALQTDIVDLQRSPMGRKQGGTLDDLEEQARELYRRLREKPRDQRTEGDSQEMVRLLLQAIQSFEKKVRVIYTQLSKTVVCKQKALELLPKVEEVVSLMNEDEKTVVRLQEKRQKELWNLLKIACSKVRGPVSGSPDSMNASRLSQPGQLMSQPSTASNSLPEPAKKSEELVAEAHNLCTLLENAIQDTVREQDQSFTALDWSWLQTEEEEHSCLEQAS

[7] = molecular target: T2, Protein kinase C epsilon type (Homo sapiens) (UniProt Q02156); assay: Residual activity of PKCepsilon at 10 uM by microplate scintillation counting
T2 sequence (whole entry): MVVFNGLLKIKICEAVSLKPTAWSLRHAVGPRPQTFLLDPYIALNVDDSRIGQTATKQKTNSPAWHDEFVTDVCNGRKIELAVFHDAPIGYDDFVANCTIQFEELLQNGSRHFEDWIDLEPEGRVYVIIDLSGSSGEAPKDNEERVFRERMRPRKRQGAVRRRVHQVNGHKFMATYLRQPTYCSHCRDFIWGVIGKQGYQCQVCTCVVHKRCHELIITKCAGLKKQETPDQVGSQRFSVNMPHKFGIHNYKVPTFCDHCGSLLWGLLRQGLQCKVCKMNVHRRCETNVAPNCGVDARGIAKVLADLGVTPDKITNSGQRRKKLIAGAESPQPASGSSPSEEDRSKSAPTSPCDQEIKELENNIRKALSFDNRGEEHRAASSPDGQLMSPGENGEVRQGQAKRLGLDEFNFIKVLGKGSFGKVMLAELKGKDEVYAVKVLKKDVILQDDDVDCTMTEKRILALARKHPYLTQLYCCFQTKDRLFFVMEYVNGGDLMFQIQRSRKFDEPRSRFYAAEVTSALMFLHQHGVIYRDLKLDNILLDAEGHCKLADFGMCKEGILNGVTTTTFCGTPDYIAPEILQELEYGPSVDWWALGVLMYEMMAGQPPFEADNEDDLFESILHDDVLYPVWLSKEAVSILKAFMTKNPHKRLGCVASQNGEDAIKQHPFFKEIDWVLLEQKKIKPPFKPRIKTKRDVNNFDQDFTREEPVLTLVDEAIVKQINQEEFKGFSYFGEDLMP

[8] = molecular target: Serine/threonine-protein kinase PLK1 (Homo sapiens) (UniProt P53350); assay: Residual activity of PLK1 at 0.1 uM by microplate scintillation counting
[9] = molecular target: High affinity nerve growth factor receptor (Homo sapiens) (UniProt P04629); assay: Residual activity of TRK-A at 1 uM by microplate scintillation counting
[10] = molecular target: Cyclin-dependent kinase 5/CDK5 activator 1 (Homo sapiens) (UniProt Q00535+Q15078); assay: Residual activity of CDK5/p25NCK at 10 uM by microplate scintillation counting; assay type: protein-complex assay
[11] = molecular target: G protein-coupled receptor kinase 6 (Homo sapiens) (UniProt P43250); assay: Residual activity of GRK6 at 1 uM by microplate scintillation counting
[12] = molecular target: T3, Cytoplasmic tyrosine-protein kinase BMX (Homo sapiens) (UniProt P51813); assay: Residual activity of BMX at 0.1 uM by microplate scintillation counting
T3 sequence (whole entry): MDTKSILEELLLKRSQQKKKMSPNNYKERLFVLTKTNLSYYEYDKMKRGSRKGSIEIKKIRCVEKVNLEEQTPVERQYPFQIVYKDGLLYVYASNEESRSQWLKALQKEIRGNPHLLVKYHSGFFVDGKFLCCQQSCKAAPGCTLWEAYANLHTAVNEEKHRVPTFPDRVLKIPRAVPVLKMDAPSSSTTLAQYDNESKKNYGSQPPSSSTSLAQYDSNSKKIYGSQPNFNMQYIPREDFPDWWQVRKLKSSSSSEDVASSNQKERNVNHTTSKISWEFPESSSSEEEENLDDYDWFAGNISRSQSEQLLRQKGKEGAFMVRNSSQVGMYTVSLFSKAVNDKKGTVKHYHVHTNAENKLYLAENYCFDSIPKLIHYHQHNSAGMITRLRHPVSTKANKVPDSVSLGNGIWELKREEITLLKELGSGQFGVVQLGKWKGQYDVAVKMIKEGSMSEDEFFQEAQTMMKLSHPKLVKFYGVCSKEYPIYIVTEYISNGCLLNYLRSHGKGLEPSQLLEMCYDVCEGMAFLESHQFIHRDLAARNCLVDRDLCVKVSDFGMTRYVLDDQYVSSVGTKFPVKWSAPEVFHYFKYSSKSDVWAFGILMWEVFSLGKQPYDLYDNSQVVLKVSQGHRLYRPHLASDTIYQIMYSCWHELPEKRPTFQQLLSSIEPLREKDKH

Sequence of Proto-oncogene tyrosine-protein kinase Src (Homo sapiens) (P12931 2-536 limits assumed): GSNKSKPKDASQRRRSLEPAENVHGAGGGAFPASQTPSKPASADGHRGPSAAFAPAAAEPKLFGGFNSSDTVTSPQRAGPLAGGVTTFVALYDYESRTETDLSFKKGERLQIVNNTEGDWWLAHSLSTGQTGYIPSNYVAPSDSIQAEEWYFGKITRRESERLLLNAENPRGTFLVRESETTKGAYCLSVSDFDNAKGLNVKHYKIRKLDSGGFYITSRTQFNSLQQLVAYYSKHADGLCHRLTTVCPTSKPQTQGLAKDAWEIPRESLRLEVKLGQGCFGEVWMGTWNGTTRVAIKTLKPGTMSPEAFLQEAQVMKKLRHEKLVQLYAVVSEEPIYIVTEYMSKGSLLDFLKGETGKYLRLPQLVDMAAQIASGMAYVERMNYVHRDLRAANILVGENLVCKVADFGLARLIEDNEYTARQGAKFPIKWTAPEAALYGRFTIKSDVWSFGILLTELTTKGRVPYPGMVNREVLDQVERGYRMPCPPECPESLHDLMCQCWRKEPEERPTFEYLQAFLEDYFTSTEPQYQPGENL
Sequence of Dual specificity tyrosine-phosphorylation-regulated kinase 1B (Homo sapiens) (Q9Y463 whole entry, looked up): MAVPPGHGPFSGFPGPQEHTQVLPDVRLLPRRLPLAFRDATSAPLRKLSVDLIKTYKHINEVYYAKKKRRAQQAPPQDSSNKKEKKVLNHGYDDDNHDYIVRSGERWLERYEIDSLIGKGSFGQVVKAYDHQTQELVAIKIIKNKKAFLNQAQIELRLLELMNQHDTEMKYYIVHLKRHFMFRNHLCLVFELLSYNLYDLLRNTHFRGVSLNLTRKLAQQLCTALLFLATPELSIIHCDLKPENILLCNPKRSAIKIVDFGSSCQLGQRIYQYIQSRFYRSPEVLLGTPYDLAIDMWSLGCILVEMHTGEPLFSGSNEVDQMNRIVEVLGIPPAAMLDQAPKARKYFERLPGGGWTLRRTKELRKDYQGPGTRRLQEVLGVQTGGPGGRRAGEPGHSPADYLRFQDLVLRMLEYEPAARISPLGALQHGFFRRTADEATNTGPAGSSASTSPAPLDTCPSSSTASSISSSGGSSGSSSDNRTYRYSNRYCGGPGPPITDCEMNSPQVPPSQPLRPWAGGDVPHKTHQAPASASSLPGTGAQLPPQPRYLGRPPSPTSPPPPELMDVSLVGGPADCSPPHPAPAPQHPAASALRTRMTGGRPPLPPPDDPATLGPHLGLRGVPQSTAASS
Sequence of Serine/threonine-protein kinase PLK1 (Homo sapiens) (P53350 whole entry): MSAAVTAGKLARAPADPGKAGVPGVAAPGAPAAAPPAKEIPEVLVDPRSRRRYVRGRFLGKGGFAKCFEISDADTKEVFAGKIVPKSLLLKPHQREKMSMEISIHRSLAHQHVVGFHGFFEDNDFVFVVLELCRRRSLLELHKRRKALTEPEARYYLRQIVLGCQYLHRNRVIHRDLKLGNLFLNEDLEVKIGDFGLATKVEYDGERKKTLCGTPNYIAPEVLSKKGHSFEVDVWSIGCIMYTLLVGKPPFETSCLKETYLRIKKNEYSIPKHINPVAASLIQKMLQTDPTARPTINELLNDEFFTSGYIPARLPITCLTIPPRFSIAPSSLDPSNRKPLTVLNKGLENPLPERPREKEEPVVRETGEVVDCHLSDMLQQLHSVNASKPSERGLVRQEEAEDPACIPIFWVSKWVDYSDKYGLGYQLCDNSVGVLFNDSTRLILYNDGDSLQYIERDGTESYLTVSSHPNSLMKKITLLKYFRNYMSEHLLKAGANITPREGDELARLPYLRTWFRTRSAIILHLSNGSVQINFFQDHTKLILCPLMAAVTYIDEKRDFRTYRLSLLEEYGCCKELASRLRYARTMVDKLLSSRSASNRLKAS
Sequence of Cyclin-dependent kinase 5/CDK5 activator 1 (Homo sapiens) (Q00535 whole entry): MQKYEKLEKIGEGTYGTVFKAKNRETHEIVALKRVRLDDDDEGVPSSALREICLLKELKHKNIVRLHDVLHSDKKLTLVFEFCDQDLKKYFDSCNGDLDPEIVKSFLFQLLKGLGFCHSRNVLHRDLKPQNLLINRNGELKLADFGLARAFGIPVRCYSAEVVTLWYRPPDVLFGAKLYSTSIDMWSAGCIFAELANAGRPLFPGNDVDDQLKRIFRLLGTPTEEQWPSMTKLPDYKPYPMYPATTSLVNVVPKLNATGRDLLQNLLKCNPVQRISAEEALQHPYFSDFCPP
Sequence of Cyclin-dependent kinase 5/CDK5 activator 1 (Homo sapiens) (Q15078 99-307 partner limits assumed): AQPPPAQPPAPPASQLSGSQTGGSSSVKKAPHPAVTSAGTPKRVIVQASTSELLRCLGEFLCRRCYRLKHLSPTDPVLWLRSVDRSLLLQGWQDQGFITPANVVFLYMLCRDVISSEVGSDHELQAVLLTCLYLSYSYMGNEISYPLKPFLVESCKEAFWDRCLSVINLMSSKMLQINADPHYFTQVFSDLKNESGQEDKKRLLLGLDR
Sequence of High affinity nerve growth factor receptor (Homo sapiens) (P04629 33-796 limits assumed): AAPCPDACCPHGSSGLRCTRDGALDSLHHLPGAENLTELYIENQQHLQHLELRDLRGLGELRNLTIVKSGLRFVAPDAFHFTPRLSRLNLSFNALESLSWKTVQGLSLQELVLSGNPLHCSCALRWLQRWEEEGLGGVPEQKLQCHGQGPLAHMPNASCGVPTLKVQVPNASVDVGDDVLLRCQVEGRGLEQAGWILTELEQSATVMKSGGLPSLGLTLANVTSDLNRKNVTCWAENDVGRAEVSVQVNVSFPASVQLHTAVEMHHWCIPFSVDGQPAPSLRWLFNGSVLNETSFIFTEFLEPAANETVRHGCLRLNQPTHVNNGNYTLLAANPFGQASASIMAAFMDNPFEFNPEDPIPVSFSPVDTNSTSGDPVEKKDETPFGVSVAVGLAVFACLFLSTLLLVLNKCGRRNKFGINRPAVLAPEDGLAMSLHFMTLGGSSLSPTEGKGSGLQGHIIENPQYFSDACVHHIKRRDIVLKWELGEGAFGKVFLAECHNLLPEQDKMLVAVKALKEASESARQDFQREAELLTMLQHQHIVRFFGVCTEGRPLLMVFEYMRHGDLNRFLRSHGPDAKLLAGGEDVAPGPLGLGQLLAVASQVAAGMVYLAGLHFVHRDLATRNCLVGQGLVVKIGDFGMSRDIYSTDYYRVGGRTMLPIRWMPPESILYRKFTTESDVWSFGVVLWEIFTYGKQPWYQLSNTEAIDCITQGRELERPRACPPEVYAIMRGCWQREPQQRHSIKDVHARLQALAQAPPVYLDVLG
Sequence of Serine/threonine-protein kinase PLK2 (Homo sapiens) (Q9NYY3 whole entry, looked up): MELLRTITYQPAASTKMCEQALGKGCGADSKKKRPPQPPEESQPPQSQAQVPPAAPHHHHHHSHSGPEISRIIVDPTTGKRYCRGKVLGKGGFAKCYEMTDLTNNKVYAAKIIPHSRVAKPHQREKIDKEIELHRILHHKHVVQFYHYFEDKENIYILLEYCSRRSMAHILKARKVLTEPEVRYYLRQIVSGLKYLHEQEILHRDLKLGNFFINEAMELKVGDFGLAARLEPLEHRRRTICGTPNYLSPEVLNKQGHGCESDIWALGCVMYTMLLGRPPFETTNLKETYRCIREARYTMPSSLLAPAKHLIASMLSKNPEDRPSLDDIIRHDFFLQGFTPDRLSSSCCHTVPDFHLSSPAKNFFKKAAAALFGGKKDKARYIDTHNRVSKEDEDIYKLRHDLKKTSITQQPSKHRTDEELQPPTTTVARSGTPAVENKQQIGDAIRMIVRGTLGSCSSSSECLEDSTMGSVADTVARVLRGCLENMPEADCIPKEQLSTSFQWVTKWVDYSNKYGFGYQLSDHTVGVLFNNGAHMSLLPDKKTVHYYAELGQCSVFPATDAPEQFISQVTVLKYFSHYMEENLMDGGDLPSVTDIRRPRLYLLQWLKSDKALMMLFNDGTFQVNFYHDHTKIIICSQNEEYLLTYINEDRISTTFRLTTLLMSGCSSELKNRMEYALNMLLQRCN
Sequence of Angiopoietin-1 receptor (Q02763 whole entry): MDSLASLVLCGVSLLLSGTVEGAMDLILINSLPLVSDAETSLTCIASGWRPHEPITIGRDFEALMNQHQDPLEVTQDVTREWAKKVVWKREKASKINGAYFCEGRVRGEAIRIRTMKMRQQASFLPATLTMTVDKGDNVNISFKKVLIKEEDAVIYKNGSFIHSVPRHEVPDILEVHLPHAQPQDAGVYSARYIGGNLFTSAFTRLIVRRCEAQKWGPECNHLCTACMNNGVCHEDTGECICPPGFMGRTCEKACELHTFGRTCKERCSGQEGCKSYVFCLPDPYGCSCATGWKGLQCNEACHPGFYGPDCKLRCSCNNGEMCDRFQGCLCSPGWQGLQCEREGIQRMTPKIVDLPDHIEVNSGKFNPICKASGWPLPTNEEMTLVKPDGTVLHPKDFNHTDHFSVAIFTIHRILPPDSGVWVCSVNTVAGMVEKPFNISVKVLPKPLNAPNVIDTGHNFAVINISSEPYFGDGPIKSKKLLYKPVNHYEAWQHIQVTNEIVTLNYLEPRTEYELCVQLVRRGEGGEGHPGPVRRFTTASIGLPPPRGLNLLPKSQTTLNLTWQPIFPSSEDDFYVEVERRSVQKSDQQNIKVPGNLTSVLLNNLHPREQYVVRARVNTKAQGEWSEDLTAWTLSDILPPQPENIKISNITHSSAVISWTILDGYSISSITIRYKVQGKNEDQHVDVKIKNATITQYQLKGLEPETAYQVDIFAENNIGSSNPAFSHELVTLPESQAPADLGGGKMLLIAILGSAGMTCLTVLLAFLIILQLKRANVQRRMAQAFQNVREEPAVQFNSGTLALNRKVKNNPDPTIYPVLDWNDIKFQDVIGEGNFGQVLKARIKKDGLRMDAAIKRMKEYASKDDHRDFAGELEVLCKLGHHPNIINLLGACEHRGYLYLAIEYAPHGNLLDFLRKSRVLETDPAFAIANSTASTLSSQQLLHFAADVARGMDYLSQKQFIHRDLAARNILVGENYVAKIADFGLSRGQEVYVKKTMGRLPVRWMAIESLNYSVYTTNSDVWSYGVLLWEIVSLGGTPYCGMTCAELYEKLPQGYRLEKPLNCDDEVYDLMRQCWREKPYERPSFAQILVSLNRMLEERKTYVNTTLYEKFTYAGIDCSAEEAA

Row | residual activity [1] [%] | residual activity [2] [%] | residual activity (Angiopoietin-1 receptor) [%] | residual activity [3] [%] | residual activity [4] [%] | residual activity [5] [%] | residual activity [6] [%] | residual activity [7] [%] | residual activity [8] [%] | residual activity [9] [%] | residual activity [10] [%] | residual activity [11] [%] | residual activity [12] [%] | Compound
1 | 104 | 97 | 22 | 100 | 91 | 108 | 86 | 128 | 94 | 83 | 112 | 80 | 117 | COc1cc2c(Oc3ccc(-c4nc5ccccc5s4)cc3)ncnc2cc1OCCCN1CCN(C)CC1
2 | 89 | 104 | 16 | 100 | 104 | 99 | 88 | 135 | 98 | 86 | 116 | 93 | 116 | COc1cc2c(Oc3ccc(-c4nc5ccccc5s4)cc3F)ncnc2cc1OCCCN1CCN(C)CC1
3 | 98 | 117 | 23 | 100 | 105 | 120 | 98 | 142 | 91 | 72 | 117 | 90 | 94 | COc1cc2c(Oc3ccc(-c4nc5ccccc5s4)cc3)ncnc2cc1OCCCN1CCCC1
